Reference: patent US5314886A, “N-substituted lactams useful as cholecystokinin antagonists” (priority 1992, dated 1994)

Assays:
CCK receptors = assay: Rat gastric emptying: reversal of CCK-delayed gastric emptying; type: in vivo; details: CCK 100 μg/Kg i.p.; for CCK-delayed gastric emptying: ED50: IP
Protocol: Rat Gastric Emptying Protocol
A test meal for measuring gastric emptying in rats was prepared. Ten grams of methylcellulose (2% solution=15 centipoises; Aldrich Chemical Company, Milwaukee, Wisc. was added to 200ml of cold water and mixed at 20,000 rpm in a Waring blender to insure dispersion and hydration of the methylcellulose. In addition, two beef bouillon cubes (Wyler's, Columbus, Ohio) dissolved in 100 ml of warm water was added to the mixture, followed by 16 g of casein (Hammersten, Schwartz/Mann, Orangeburg, N.Y.), 8 g of powdered confectioners sugar and 8 g of cornstarch. The ingredients were mixed for two minutes at 20,000 rpm and the resultant test meal was refrigerated for 48 hours to allow trapped air to escape. Male Charles River Rats, Crl: COBS, CD (SD) BR Strain, 180-200 g body weight, were used in groups of six animals. The animals were food deprived for 24 hours prior to the experiment with access to water ad libitum. The compounds to be evaluated were prepared in a 0.5% aqueous methylcellulose solution. If insoluble, the mixture was homogenized for two minutes at 5500 rpm using a Try-R-Stir-R. The compounds were given intraperitoneally or intragastrically at a volume of 5 ml/kg, 60 minutes or 90 min, respectively, before the test meal. Control animals received only the vehicle. Cholecystokinin (100 μg/Kg, i.p.) was given 30 minutes before the test meal to delay gastric emptying by an effect elicited through CCK receptors. Sixty minutes after the test meal (2.0 ml/rat, i.g.), the rats were sacrificed by CO2 asphyxiation. The stomachs were removed intact and weighed. The stomachs were kept opened, gently rinsed with tap water, blotted dry with paper toweling, and the empty stomach weighed. The difference between the weight of the full and empty stomach is indicative of the amount of meal remaining in the stomach. The amount of meal remaining in the stomach was subtracted from the weight of 3 ml of the test meal to determine the amount of food emptied from the stomach during the test. Weight of the test meal was determined by weighing three samples (3 ml) at the beginning and three samples at the end of each experiment and calculating the mean. The mean and standard error of the amount of meal emptied were calculated for at least 5 doses of compound, and expressed as percent change from control.

CCK-B = molecular target: T1, CCK-B (Cavia porcellus, UniProt H0VZC5); assay: Displacement of 125I-CCK-OP binding to guinea pig brain homogenates (CCK-B binding); details: guinea pig brain membranes; for inhibition at 10 µM: read-out: CCK-B binding GP brain membranes: percent displacement of 125I-CCK-OP
T1 construct: Rat pancreas or guinea pig brain was homogenized; from tissue; host or cells: guinea pig brain homogenate (membrane pellet)
T1 sequence (H0VZC5 1-426): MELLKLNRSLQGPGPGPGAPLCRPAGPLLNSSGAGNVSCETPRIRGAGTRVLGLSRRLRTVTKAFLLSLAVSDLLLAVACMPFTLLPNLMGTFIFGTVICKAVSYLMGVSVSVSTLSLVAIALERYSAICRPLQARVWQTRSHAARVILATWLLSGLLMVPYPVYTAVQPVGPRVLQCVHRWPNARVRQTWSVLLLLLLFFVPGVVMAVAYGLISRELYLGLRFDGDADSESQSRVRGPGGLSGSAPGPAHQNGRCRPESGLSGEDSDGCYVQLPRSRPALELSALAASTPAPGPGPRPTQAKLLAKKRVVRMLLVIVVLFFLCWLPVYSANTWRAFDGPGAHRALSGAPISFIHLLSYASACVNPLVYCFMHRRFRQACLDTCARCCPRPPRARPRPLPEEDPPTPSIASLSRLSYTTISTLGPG
Protocol: Percent displacement of ^125 I-CCK-OP binding to rat pancreatic membrane and guinea pig brain homogenates by compounds of the instant invention at different concentrations was used to quantify CCK-A and CCK-B receptor binding, respectively.
Binding of 125-CCK-OP to rat pancreas (CCK-A) and guinea pig brain (CCK-B) homogenates.
Rat pancreas or guinea pig brain was homogenized in 50 and 20 volumes, respectively, of 50 mM Tris-HCl buffer (pH 7.8 at 25° C.) with a Brinkmann polytron homogenizer. The homogenates were centrifuged twice at 50,000 x g for 20 min with an intermediate rehomogenization in fresh buffer. The final pellets were resuspended in 20 volumes (brain) or 40 volumes (pancreas) of incubation buffer [50 mM Tris-HCl, 5 mM MgCl2, 0.2% BSA, 5 mM dithiothreitol, 0.14 mg/ml bacitracin, pH 7.9 at 25° C.]. One milliliter of the final homogenate from brain or pancreas was diluted to 50 mL with incubation buffer to use in the binding assay.
Binding experiments were performed in a final volume of 1 mL in 13×100 mm borosilicate disposable culture tubes. To duplicate tubes were added 890 μL of freshly resuspended pancreas or brain homogenate; 73,000 dpm of […] (final concentration, 12 pM) and 10 μL of DMSO containing displacing agents (compounds or reference compounds, at the desired final concentrations). Nonspecific (nonsaturable) binding was determined in the presence of 1 μM unlabeled CCK-OP. After incubation for 30 min at 37° C. the binding was stopped by rapid filtration under a reduced pressure through glass fiber FPD-105 Whatman GF/B filters on Harvester and washed twice with 5 mL of ice-cold Tris buffer (50 mM Tris-HCl, pH 7.8). The radioactivity on the filters was counted in a gama counter. […] Specific binding was defined as the excess binding over that in blanks containing 1 μM unlabeled CCK-OP.
Determination of IC50 for displacing agents

CCK-A = molecular target: T2, CCK-A (Rattus norvegicus, UniProt P30551); assay: Displacement of 125I-CCK-OP binding to rat pancreatic membranes (CCK-A binding); details: 125I-CCK-OP
T2 sequence (P30551 1-444): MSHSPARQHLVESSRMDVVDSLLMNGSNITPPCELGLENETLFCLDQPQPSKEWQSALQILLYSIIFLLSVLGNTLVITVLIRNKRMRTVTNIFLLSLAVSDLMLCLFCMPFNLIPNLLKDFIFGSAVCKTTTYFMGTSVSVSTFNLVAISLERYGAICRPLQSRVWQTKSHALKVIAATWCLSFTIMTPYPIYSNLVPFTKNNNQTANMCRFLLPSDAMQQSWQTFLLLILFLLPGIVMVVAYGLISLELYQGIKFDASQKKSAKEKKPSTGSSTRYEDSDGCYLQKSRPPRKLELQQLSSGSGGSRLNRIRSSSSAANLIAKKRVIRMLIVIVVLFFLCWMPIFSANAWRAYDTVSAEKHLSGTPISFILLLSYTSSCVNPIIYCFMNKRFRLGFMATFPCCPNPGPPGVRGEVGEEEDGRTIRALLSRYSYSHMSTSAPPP

inhibition at 10 µM (CCK-B) [%] | IC50 (CCK-A) [nM] | IC50 (CCK-B; 125I-CCK-OP, read-out: CCK-B binding GP brain membranes: IC50) [nM] | SMILES | CCK-delayed gastric emptying: ED50 (CCK receptors) [mpk] | CCK-delayed gastric emptying: % Reversal @ Dose (CCK receptors; 3 mpk IP) [%] | CCK-delayed gastric emptying: % Reversal @ Dose (CCK receptors; 1.0 mpk IP) [%]
48 | 15 |  | O=C(N[C@@H]1C(=O)N(c2ccccc2)C[C@@H]1C(=O)O)c1ccc2ccccc2c1 (relative stereo) [41 cis] | 0.41 |  | 
35 | 58 |  | O=C(N[C@H]1C(=O)N(c2ccccc2)C[C@H]1C(=O)O)c1ccc(Cl)c(Cl)c1 (relative stereo) [Example 35 (cis), cis-4-[[(3,4-dichlorophenyl)carbonyl]amino]-5-oxo-1-phenyl-3-pyrrolidinecarboxylic acid] |  | 57.9 | 
41 |  |  | O=C(N[C@H]1C(=O)N(c2ccccc2F)C[C@H]1C(=O)O)c1ccc2ccccc2c1 (relative stereo) [Example 44, cis-1-(2-Fluorophenyl)-4-[(2-naphthalenylcarbonyl]amino]-5-oxo-3-pyrrolidinecarboxylic acid] | 1.7 | 86 | 
22 |  |  | O=C(N[C@@H]1C(=O)N(c2ccccc2)C[C@H]1C(=O)O)c1ccc2ccccc2c1 (relative stereo) [41 trans] | 3.2 |  | 
 | 17 | 5100 | O=C(N[C@H]1C(=O)N(c2ccccc2)C[C@H]1C(=O)O)c1cc2ccccc2[nH]1 (relative stereo) [Example 29, cis-4-[(1H-indol-2-ylcarbonyl)amino]-5-oxo-1-phenyl-3-pyrrolidinecarboxylicacid] | < 0.1 |  | 86.3
